What was measured:
[1] = tested on: pentylenetetrazole (PTZ)-induced convulsions; test: Antagonism to pentylenetetrazole (PTZ) convulsions; type: in vivo
Summary of the method: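 Outbred mice (18–22 g), six per dose, given compound or emulsifier vehicle; clonic seizures and convulsions after PTZ recorded over 1 h observation. ED50 derived by the Litchfield–Wilcoxon method.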

mice [2] = test: Forced swimming test; details: 6 min;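 also: mice made to swim in a water-filled glass vessel under natural light, with durations of active swimming and immobility recorded across the 6 min session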
Protocol: Forced swimming test. To assess “despair and depression”, the “compelling swimming” model was used. Experimental animals were forced to swim in a glass container (height 22 cm, diameter 14 cm), filled 1/3 with water. […] The latent period of immobilization, the total duration of active swimming and immobilization are fixed at 6 min (the experiments were conducted under natural light).

rats [3] = test: Electroshock retrograde amnesia, conditioned response of passive avoidance (CRPA); type: in vivo
Summary of the method: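 Rats trained in light/dark passive avoidance with a single 0.4 mA foot shock in the dark compartment, then given maximal electroconvulsive shock (50 Hz, 0.2 s, corneal) immediately after to induce amnesia. Retention tested 24 h later; antiamnesic effect read as increased time in the light compartment versus controls.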

[4] = tested on: maximal electroshock-induced seizures; test: Maximal electroshock-induced seizures (MES); type: in vivo; details: mice, MES 50 mA, 0.2 s
Protocol: The study of the anticonvulsant activity of hybrids 7a–u was assessed by evaluating the antagonism to pentylenetetrazole (PTZ), thiosemicarbazide convulsive seizures, and maximal electroshock-induced seizures (MES). The PTZ-induced test is considered an experimental model for the clonic component of epilepsy seizures and the prognostic anxiolytic activity of the compounds. PTZ is a common convulsive agent used in animal models to investigate the mechanisms of seizures. The model of thiosemicarbazide (TSC) seizures (affecting the exchange of GABA) causes clonic seizures similar to pentylenetetrazole ones. The MES test is used as an animal model for the generalization of tonic seizures in epilepsy. The neurotoxicity and side effects of the compounds (movement coordination disorder, myorelaxation, and ataxia) were also studied on mice with the “rotating rod”[29] test.
The anticonvulsant effect of the newly synthesized compounds was investigated by tests comprising pentylenetetrazole, thiosemicarbazide convulsions, and maximal electroshock (MES). Outbred mice (weight 18–22 g) were used for the study. […] Seizures and clonic convulsions were recorded. […]
The MES test is used as an animal model for the generalized tonic seizures of epilepsy. […] The anticonvulsant properties of compounds were assessed by their prevention of the tonic-extensor phase of convulsions.

mouse = test: Elevated plus maze (EPM) test; type: in vivo; details: 5 min
Summary of the method: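 Mice dosed intraperitoneally with compound or reference before testing, controls receiving emulsifier. Anxiolytic effect scored as increased entries into and time in open arms without raised total motor activity; closed-arm time and center-entry attempts also recorded; significance at p < 0.05.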

rats [5] = test: Open field test; type: in vivo
Summary of the method: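 Rats observed for 5 min in a modified open field whose floor is divided into squares with holes, in daytime under natural light. Horizontal movements, rearing and hole sniffing were counted; eight animals per compound, control and reference drug.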

[6] = tested on: thiosemicarbazide (TSC)-induced convulsions; test: Thiosemicarbazide (TSC) seizures; type: in vivo, mice
Summary of the method: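 Mice received compounds 100 mg/kg i.p. in carboxymethylcellulose/Tween-80 suspension 45 min before thiosemicarbazide 18 mg/kg s.c. (0.5% solution). Anti-TSC activity judged by latency to onset of clonic seizures.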

in vivo = details: outbred, mouse, in vivo; mice, dead animals after 24 h
Summary of the method: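 Compounds are given intraperitoneally to mice at 50 to 500 mg/kg, with reference drugs at anticonvulsant doses. Muscle relaxation is scored on a rod rotating at 5 rpm as the number of animals unable to stay on for 2 min. ED50, TD50 and LD50 come from the Litchfield and Wilcoxon method.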

mice [7] = test: Rotating rod test (neurotoxicity, myorelaxation); type: in vivo; details: i.p., myorelaxation in 50% of animals
Summary of the method: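 Compounds given i.p. at 50 to 500 mg/kg; mice placed on a rubber-coated rod rotating at 5 rpm, counting animals unable to stay on for 2 min. TD50 derived by the Litchfield–Wilcoxon method.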

[8] = Mus musculus, read-out: Latency of Convulsions, Induced by TSC, I (index of latent period of TSC seizures)

SMILES: CN1C(=O)CN=C(c2ccccc2)c2cc(Cl)ccc21 [Diazepam, diazepam, reference compound]
- ED50 ([1]; Mus musculus, read-out: ED50 (by PTZ antagonism)): 0.5 mg/kg
- TI ([1]; therapeutic index TI = LD50/ED50): 360
- Total Time of Active Swimming (mice [2]; 2 mg/kg): 336.0 ± 8.1 s
- Total Time of Immobilization (mice [2]; 2 mg/kg): 24.0 ± 8.2 s
- The Time Spent in the Light Chamber When Playing CRPA + MESH after 24 h, Second Day (rats [3]; 2 mg/kg, study for 5 min): 126.0 ± 6.5 s
- The Time Spent in the Light Chamber during the Training of the CRPA, First Day (rats [3]; 2 mg/kg, study for 5 min): 187.0 ± 6.7 s
- antiamnestic effect, in words (rats [3]; electroshock retrograde amnesia, CRPA): did not have an antiamnestic effect
- anticonvulsant effect in the MES test (protection from tonic and clonic seizures) [4]: did not exhibit an anticonvulsant effect
- Number of Entries into the Closed Arms (mouse; 2 mg/kg): 5.5 ± 1.1
- Time Spent in Closed Arms (mouse; 2 mg/kg): 257.5 ± 25.2 s
- Time Spent in the Center (mouse; 2 mg/kg): 42.5 ± 3.9 s
- Time Spent in the Open Arms (mouse; 2 mg/kg): 57.0 ± 4.2 s
- Cells Examination, amount (absolute data during 5 min) (rats [5]; 2 mg/kg): 5.0 ±1.2
- Horizontal Displacement, amount (absolute data during 5 min) (rats [5]; 2 mg/kg): 33.6 ± 6.1
- Vertical Displacement, amount (absolute data during 5 min) (rats [5]; 2 mg/kg): 6.4 ± 1.4
- response vs control in vivo at 2 mg/kg [6, 8]: 90%
- Latency of Convulsions, Induced by TSC, M ± M ([6]; mice, diazepam 2 mg/kg): 9.0 ± 2.5 min
- effect on the model of thiosemicarbazide (TSC) seizures, in words ([6]; mice, diazepam 2 mg/kg): not effective

SMILES: CCC1(C)CC(=O)NC1=O (centres unmarked) [Ethosuximide, ethosuximide, reference compound]
- TI ([1]; outbred, mouse, in vivo): 8.5
- LD50 at 24 h (in vivo): 1320 mg/kg
- Total Time of Active Swimming (mice [2]; 200 mg/kg): 262 ± 25.0 s
- Total Time of Immobilization (mice [2]; 200 mg/kg): 98.0 ± 9.2 s
- TD50 (mice [7]): 520 (413 ÷ 655) mg/kg
- anticonvulsant effect in the MES test (protection from tonic and clonic seizures) [4]: did not exhibit an anticonvulsant effect
- Number of Entries into the Closed Arms (mouse; 200 mg/kg): 8.1 ± 2.5
- Time Spent in Closed Arms (mouse; 200 mg/kg): 247.2 ± 27.6 s
- Time Spent in the Center (mouse; 200 mg/kg): 52.8 ± 4.7 s
- Cells Examination, amount (absolute data during 5 min) (rats [5]; 200 mg/kg): 0.6 ± 0.5
- Horizontal Displacement, amount (absolute data during 5 min) (rats [5]; 200 mg/kg): 26.8 ± 5.51
- Vertical Displacement, amount (absolute data during 5 min) (rats [5]; 200 mg/kg): 5.6 ± 1.8
- response vs control in vivo at 200 mg/kg [6, 8]: 170%
- Latency of Convulsions, Induced by TSC, M ± M ([6]; mice, ethosuximide 200 mg/kg): 17.0 ± 1.4 min
